From patent US20240024317A1, “CANCER TREATMENT USING BOSENTAN IN COMBINATION WITH A CHECKPOINT INHIBITOR” (Materia Therapeutics Inc., priority 2020, published 2024)

Tests used:
Type in all cases: in vivo, mice
E0771 tumors = assay: Interstitial fluid pressure (IFP), wick-in-needle technique; settings: 1 mg/kg bosentan
Experimental: (§1) Mice bearing syngeneic, orthotopic triple negative breast cancer (TNBC) were treated with a range of sub-therapeutic doses of bosentan, from 0.2 mg/kg to 10 mg/kg of body weight. Orthotopic models for murine mammary tumors were generated by implantation of 5×10^4 4T1 or E0771 cancer cells in 40 μl of serum-free medium into the third mammary fat pad of 6-8-week-old BALB/c and C57BL/6 female mice, respectively. 4T1 (ATCC® CRL-2539TH) and E0771 (94A001, CH3 BioSystems) mouse breast adenocarcinoma cell lines were purchased form ATCC and CH3 BioSystems, respectively. The cells were maintained at 37° C./5% CO2 in Roswell Park Memorial Institute medium (RPMI-1640, LM-R1637, Biosera) supplemented with 10% fetal bovine serum (FBS, FB-1001H, biosera) and 1% antibiotics (A5955, Sigma). Bosentan (bosentan Hydrate (S3051, Selleckchem) was dissolved in ddH2O containing 2% DMSO (GK2245, Glentham Life Science), 30% PEG300 (S6704, Selleckchem) and 2% Tween 80 (S6702, Selleckchem)) 1 mg/kg, 5 mg/kg, 10 mg/kg or equal volume of diluent (control group) was administered by intraperitoneal injection (i.p.) once a day for 10 days, starting from once the tumor volumes reached an average size of 100 mm^3. Tumors were excised when they reached an average size of 500 mm^3. Tissue stiffness was then measured non-invasively and longitudinally using ultrasound elastography. […]

4T1 tumors [1] = assay: Whole tumor RT-PCR mRNA expression
4T1 or E0771 tumors = assay: Tumor growth under bosentan monotherapy (dose response studies); settings: bosentan monotherapy at any dose
Experimental: as §1

[2] = Mouse body weight under bosentan monotherapy; settings: bosentan monotherapy at any dose
Experimental: as §1

4T1 tumors [3] = assay: Dynamic contrast-enhanced ultrasound (DCEUS) perfusion measures; settings: bosentan treated versus control or immunotherapy cocktail only
Experimental: Dynamic contrast-enhanced ultrasound (DCEUS). Tumor associated vascular perfusion was assessed with DCEUS after bolus injection of contrast agents (8 μl of sulphur hexafluoride microbubbles encapsulated by a phospholipid shell with a mean diameter of 2.5 μm, retro-orbital administration). Ultrasound scanning of tumor was performed using the L12-5 transducer. Contrast first harmonic signals were received at 8 MHz with a mechanical index of 0.06. For all subjects the depth was set to 3 cm allowing measurements of the full depth of the tumor. Gain was set at 90% for each recording. Focus was optimized and standardized for each subject when finding the tumor area using B-mode imaging. Real-time power modulation imaging was started after flashing imaging with a high mechanical index to destroy the microbubbles in tumor tissue to peak contrast intensity to allow visualization of bubble replenishment. Image analysis was performed offline using an ultrasound quantification and analysis software (QLAB, Phillips Medical Systems). From the produced time intensity curves, we used as measures of perfusion the Mean transit time and the time required to reach the peak intensity (Rise time). […]

## COc1ccccc1Oc1c(NS(=O)(=O)c2ccc(C(C)(C)C)cc2)nc(-c2ncccn2)nc1OCCO [bosentan, 4-tert-butyl-N-[6-(2-hydroxy-ethoxy)-5-(2-methoxy-phenoxy)-2-(pyrimidin-2-yl)pyrimidin-4-yl] benzenesulfonamide]
E0771 tumors
  interstitial fluid pressure: decrease in interstitial fluid pressure
4T1 tumors [1]
  T cell activity expression (mRNA): increased
  endothelial adhesion molecule expression (mRNA): increased
  hypoxia related gene-expression (mRNA): reduced
4T1 or E0771 tumors
  tumor growth: did not affect
[2]
  mouse body weight: did not affect
4T1 tumors [3]
  mean transit time (DCEUS): higher
  rise time (DCEUS): higher
